According to patent US7173004B2, “Macrocyclic isoquinoline peptide inhibitors of hepatitis C virus” (Bristol-Myers Squibb Company, priority 2003, dated 2007):

Columns and labels:
HCV = conditions: cited from earlier work
HCV replicon [1] = assay: Three-drug combination studies in HCV replicon system, combination index; assay type: cell-based; conditions: mono-therapy in the three-drug combination experiment, HCV replicon, read-out: NS5A inhibitor EC50
Method: […] an NS5B replicase inhibitor (compound 2006; WO 03/010141), were tested in 2-drug combinations with the macrocyclic HCV NS3 protease inhibitor compound 28. In addition, compound 28 was also tested in 3-drug combinations with the NS5A and NS5B inhibitors.
For the experiments shown in Tables 8 and 9, inhibitors were tested at eleven concentrations each. 200× stock solutions of each inhibitor concentration were prepared by 2- or 3-fold dilution in DMSO prior to addition to cells/media. The drugs were tested as monotherapies and in combination with the NS3 protease inhibitor at various concentration ratios. Cells were exposed to compounds for 4 days and the amount of HCV inhibition was then determined using the FRET assay. The potential cytotoxicities of these combined agents were also analyzed in parallel by Alamar Blue staining. […] The degree of antagonism, additivity, or synergy was determined over a range of drug concentrations, and combination response curves were fit to assess the antiviral effects of the drug treatment combinations. The concentration ratios were analyzed using the method of Chou (Chou, Ting-Chao, and Rideout (Editors), (1991) Synergism and Antagonism in Chemotherapy, P. 61–101, Academic Press, New York). Tables 8 and 9 report the estimated EC50 values for the compounds tested, as well as the combination indices (CI). All estimates were computed using SAS Proc NLIN, and a two-parameter logistic. All combination indices were tested for departure from additivity using isobologram methods. Asymptotic confidence intervals were also calculated for each of the combination indices. These intervals are used to test for departure from additivity by comparing the bounds to one—a lower bound of the interval greater than 1 indicates antagonism, an upper bound of less than 1 indicates synergism, and a value of 1 contained in the interval indicates additivity.
Compound 28 was also tested in 3-drug combination experiments with the NS5A inhibitor and the NS5B inhibitor (Table 12). The starting concentrations for the mono-therapies consisted of a 0.667 μM solution of the NS5A inhibitor, a 0.3 μM solution of compound 28, and a 2.5 μM solution of the NS5B inhibitor. The starting concentration for the triple combination contained a mixture of ⅓ of each of the above concentrations. Dose response curves for all three mono-therapies and the triple combination therapy were obtained using 3-fold dilutions, and data analysis was carried out as described above for combination index experiments.

HCV replicon [2] = assay: Two-drug combination matrix studies in HCV replicon system, Universal Response Surface Approach (URSA); assay type: cell-based; conditions: Hepatitis C virus, matrix study with NS5A inhibitor, URSA estimate (Table 10)
Method: In addition to the combination index approach, above, the Universal Response Surface Approach (URSA) was also used to assess the antiviral effects of combinations of NS5A or NS5B inhibitors with the NS3 protease inhibitor. The experiments were conducted in a matrixed format with 8 concentrations of NS3 protease inhibitor crossed against 10 concentrations of NS5A or NS5B inhibitor on each of three plates. 200× stock solutions of each inhibitor concentration were prepared by 3-fold dilution in DMSO. Effects on replication were assessed in the HCV replicon system as described above. The data was analyzed using the URSA as described in Greco, Park and Rustum (Greco, Park, Sook, and Rustum (1990) Application of a New Approach for the Quantitation of Drug Synergism to the Combination of cis-Diamminedichloroplatinum and 1-β-D-Arabinofuranosylcytosine, Cancer Research, 50, 5318–5327). The interaction of the two drugs was assessed by using non-linear regression with a bisection algorithm. Seven parameters were estimated. These include the minimal response or response in the absence of drug, the maximal response or response in the presence of infinite drug, EC50's for the two drugs, slope parameters for the two drugs, and the drug interaction parameter α which provides the assessment of synergism, antagonism or additivity. Additivity is implied when α is equal to zero, synergy if the interaction parameter is larger than zero, and antagonism when the interaction parameter is less than zero. The confidence interval for the interaction parameter is also presented. This interval is used to test for departure from additivity by comparing the bounds to zero—a lower bound of the interval greater than zero indicates synergy, an upper bound of less than zero indicates antagonism, and a value of zero contained in the interval indicates additivity.

[3] = from C=CCCCSC[C@@H](NC(=O)OC(C)(C)C)C(=O)N1C[C@H](Oc2nccc3cc(OC)ccc23)C[C@H]1C(=O)N[C@]1(C(=O)OCC)C[C@H]1C=C; rcm bond; Grubbs II (tricyclohexylphosphine[1,3-bis(2,4,6-trimethylphenyl)-4,5-dihydroimidazol-2-ylidene][benzylidene]ruthenium(IV) dichloride); 1,2-dichloroethane; 3.48 mM; 83.0 °C; 16.0 h
[4] = molecular target: T1, HCV NS3/4A protease complex, BMS strain (genotype 1a) (UniProt P27958, C1454S/C1711G, species not given/STRAIN_BMS); assay: Recombinant HCV NS3/4A protease complex FRET peptide assay, BMS strain; assay type: biochemical; conditions: NS3/4A BMS Strain; activity range classes
T1 construct: b1001: DNA encoding the recombinant HCV NS3/4A protease complex (amino acids 1027 to 1711) ... a three-lysine solubilizing tail was added at the 3′-end of the NS4A coding region; fused on or other part: Three-lysine solubilising tail at the C-terminus of NS4A; A His tag is implied by the pET21b vector and Ni-NTA purification
Excerpt: Recombinant HCV NS3/4A Protease Complex FRET Peptide Assay
The purpose of this in vitro assay was to measure the inhibition of HCV NS3 protease complexes, derived from the BMS strain, H77C strain or J416S strain, as described below, by compounds of the present invention. This assay provides an indication of how effective compounds of the present invention would be in inhibiting HCV proteolytic activity.
Serum from an HCV-infected patient was obtained from Dr. T. Wright, San Francisco Hospital. An engineered full-length cDNA (compliment deoxyribonucleic acid) template of the HCV genome (BMS strain) was constructed from DNA fragments obtained by reverse transcription-PCR (RT-PCR) of serum RNA (ribonucleic acid) and using primers selected on the basis of homology between other genotype 1a strains. From the determination of the entire genome sequence, a genotype 1a was assigned to the HCV isolate according to the classification of Simmonds et al. (See P Simmonds, K A Rose, S Graham, S W Chan, F McOmish, B C Dow, E A Follett, P L Yap and H Marsden, J. Clin. Microbiol., 31(6), 1493–1503 (1993)). […] The infectious clones, H77C (1a genotype) and J4L6S (1b genotype) were obtained from R. Purcell (NIH) and the sequences are published in Genbank (AAB67036, see Yanagi, M., Purcell, R. H., Emerson, S. U. and Bukh, J. Proc. Natl. Acad. Sci. U.S.A. 94(16), 8738–8743 (1997); AF054247, see Yanagi, M., St Claire, M., Shapiro, M., Emerson, S. U., Purcell, R. H. and Bukh, J, Virology 244 (1), 161–172. (1998)).
The H77C and J4L6S strains were used for production of recombinant NS3/4A protease complexes. DNA encoding the recombinant HCV NS3/4A protease complex (amino acids 1027 to 1711) for these strains were manipulated as described by P. Gallinari et al. (see Gallinari P, Paolini C, Brennan D, Nardi C, Steinkuhler C, De Francesco R. Biochemistry. 38(17):5620–32, (1999)). Briefly, a three-lysine solubilizing tail was added at the 3′-end of the NS4A coding region. The cysteine in the P1 position of the NS4A-NS4B cleavage site (amino acid 1711) was changed to a glycine to avoid the proteolytic cleavage of the lysine tag. Furthermore, a cysteine to serine mutation was introduced by PCR at amino acid position 1454 to prevent the autolytic cleavage in the NS3 helicase domain. The variant DNA fragment was cloned in the pET21b bacterial expression vector (Novagen) and the NS3/4A complex was expressed in Escherichia coli strain BL21 (DE3) (Invitrogen) following the protocol described by P. Gallinari et al. (see Gallinari P, Brennan D, Nardi C, Brunetti M, Tomei L, Steinkuhler C, De Francesco R., J. Virol. 72(8):6758–69 (1998)) with modifications. Briefly, NS3/4A expression was induced with 0.5 mM Isopropyl β-D-1-thiogalactopyranoside (IPTG) for 22 hr at 20° C. A typical fermentation (10 L) yielded approximately 80 g of wet cell paste. The cells were resuspended in lysis buffer (10 mL/g) consisting of 25 mM N-(2-Hydroxyethyl)piperazine-N′-(2-Ethane Sulfonic acid) (HEPES), pH7.5, 20% glycerol, 500 mM Sodium Chloride (NaCl), 0.5% Triton-X100, 1 microgram/milliliter (“μg/mL”) lysozyme, 5 mM Magnesium Chloride (MgCl2), 1 ug/ml DnaseI, 5 mM β-Mercaptoethanol (βME), Protease inhibitor—Ethylenediamine Tetraacetic acid (EDTA) free (Roche), homogenized and incubated for 20 mins at 4° C. The homogenate was sonicated and clarified by ultra-centrifugation at 235000 g for 1 hr at 4° C. Imidazole was added to the supernatant to a final concentration of 15 mM and the pH adjusted to 8.0. The crude protein extract was loaded on a Nickel-Nitrilotriacetic acid (Ni-NTA) column pre-equilibrated with buffer B (25 mM HEPES, pH8.0, 20% glycerol, 500 mM NaCl, 0.5% Triton-X100, 15 mM imidazole, 5 mM βME). The sample was loaded at a flow rate of 1 mL/min. The column was washed with 15 column volumes of buffer C (same as buffer B except with 0.2% Triton-X100). The protein was eluted with 5 column volumes of buffer D (same as buffer C except with 200 mM Imidazole). […]

In the case of “alpha-interferon and ribavirin [reference compound]”, the sustained efficacy (HCV; HCV patients) is given as 40 % of patients.

For pegylated alpha-interferon, the “efficacy as monotherapy compared with unmodified alpha-interferon” value (HCV; clinical results, monotherapy) is given as “superior to unmodified alpha-interferon”.

With `O=C(Nc1ccc(C2S/C(=N\c3ccc(N4CCOCC4)cc3)N(Cc3cccnc3)C2=O)cc1)[C@@H]1CCCN1C(=O)CCc1ccccc1` (stereo partly shown) [NS5A inhibitor, reference compound] the EC50 (HCV replicon [1]; Hepatitis C virus) was 5 nM, the EC50 (HCV replicon [1]) was 9 nM and the EC50 (HCV replicon [2]) was 8 nM.

With `CCOC(=O)[C@@]12C[C@H]1C=CCCCSC[C@@H](NC(=O)OC(C)(C)C)C(=O)N1C[C@H](Oc3nccc4cc(OC)ccc34)C[C@H]1C(=O)N2` the ring closure, yield of all isomers [3] was 73%.

In the case of `COc1ccc2c(O[C@@H]3C[C@H]4C(=O)N[C@]5(C(=O)O)C[C@H]5/C=C\COCC[C@H](NC(=O)OC(C)(C)C)C(=O)N4C3)nccc2c1` [Compound 140], the IC50 [4] is reported as 5000 to 50000 nM.
